Assay results as given in patent US4393225A, “AI-77 Compounds and pharmaceutically acceptable salts thereof” (Asahi Kasei Kogyo Kabushiki Kaisha, priority 1979, dated 1983).

How the values were obtained:
ulcer = test: Anti-ulcer test (restraint and water immersion ulcer in rats, i.p.); format: in vivo, Male Wistar rats; conditions: Rattus norvegicus, ip; 50 mg/kg i.p.; read-out: % Inhibition of Ulcer
Procedure, shortened: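 Male Wistar rats (~150 g), fasted 24 h, dosed i.p. with compound in physiological saline; 1 h later restrained and immersed to xiphisternum in 21 °C water for 6 h. Stomachs examined microscopically, ulcers scored 0–3, and percent inhibition calculated.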

[1] = Solubility of compounds A to G; format: physicochemical; conditions: in water and organic solvents
[2] = Stability (heat, alkali, aqueous solution) of compounds A to G; format: physicochemical
edema = test: Anti-edema test (carrageenan hindfoot edema in rats, p.o.); format: in vivo, Male Wistar rats; conditions: Rattus norvegicus, po; 100 mg/kg p.o. (after 3 hours)
Experimental: Tables 13, 14 and 15 show the effect of these compounds to inhibit the occurrence of ulcer and edema. The anti-ulcer and anti-edema activity of the compounds was evaluated in efficacy tests described below. The first two symbols that appear in each of the compound names in Tables 13 and 15 represent the compounds synthesized in the methods (1) through (29); for example, IIIa-1 of a compound IIIa-1-1 represent the compound (IIIa-1).
Male Wistar rats weighing about 150 g on average were starved overnight prior to the test. They were than orally administered 100 mg/kg of the test compound. One hour later, the pad of a hindfoot of the animal was injected with 1 mg of carrageenan. The volume of the foot was measured both before the injection of carrageenan and three hours after the injection. The percent edema inhibition of the test compound was calculated from the ratio of the increase in the volume of the affected foot of the test animals to the increase in the volume of the affected foot of the controls.

SMILES	inhibition in vivo at 50 mg/kg (ulcer)	solubility [1]	stability to heat and/or alkali [2]	stability in aqueous solution ([2]; aqueous solution)	inhibition in vivo at 100 mg/kg (edema)
CC(C)CC(NC(=N)C(O)C(O)C(N)CC(=O)O)C1Cc2cccc(O)c2C(=O)O1 (stereo not shown) [A]	100%	freely soluble in water, methanol, dimethylformamide, and dimethyl sulfoxide, sparingly soluble in a lower alcohol of C2 to C3 and dioxane, and substantially insoluble in ethyl acetate, chloroform, ether, hexane and benzene	very labile to heat and alkali	–	–
CC(C)CC(NC(=O)C(O)C(O)C(N)CC(=O)O)C1Cc2cccc(O)c2C(=O)O1 (stereo not shown) [B]	100%	freely soluble in water, methanol, dimethylformamide and dimethyl sulfoxide, sparingly soluble in other lower alcohols, dioxane and tetrahydrofuran, and substantially insoluble in ethyl acetate, chloroform, ether, hexane and benzene	labile to alkali in which the hydrolysis of lactone proceeds gradually even at room temperature	–	–
CC(=O)NC1CC(=O)OC1C(O)C(=O)NC(CC(C)C)C1Cc2cccc(O)c2C(=O)O1 (stereo not shown) [C]	66%	freely soluble in lower alcohols, dimethylformamide, dimethyl sulfoxide and dioxane, sparingly soluble in chloroform and ethyl acetate, and substanitally insoluble in water, ether, hexane and benzene	as labile to alkali is AI-77-B	–	–
CCC(=O)NC1CC(=O)OC1C(O)C(=O)NC(CC(C)C)C1Cc2cccc(O)c2C(=O)O1 (stereo not shown) [D]	66%	soluble in lower alcohol, dimethylformamide, dimethyl sulfoxide, dioxane, chloroform, and ethyl acetate, and substantially insoluble in water, ether, hexane and benzene	as labile to alkali as AI-77-B	–	–
CC(C)CC(NC(=O)C(O)C1C=CC(=O)O1)C1Cc2cccc(O)c2C(=O)O1 (stereo not shown) [F]	44%	freely soluble in ethyl acetate, chloroform, dimethylformamide and dimethyl sulfoxide, sparingly soluble in lower alcohols and dioxane, and substantially insoluble in water, hexane and benzene	as labile to alkali as AI-77-B	–	–
CC(C)CC(NC(=O)C(O)C(O)C(N)CC(=O)O)C(O)Cc1cccc(O)c1C(=O)O (stereo not shown) [G]	33%	freely soluble in water and slightly soluble in organic solvents	–	relatively stable in aqueous solution	–
CCNC1CC(=O)OC1C(O)C(=O)NC(CC(C)C)C1Cc2cccc(O)c2C(=O)O1 (stereo not shown) [IIIa-18-1]	100%	–	–	–	38%
CCCNC1CC(=O)OC1C(O)C(=O)NC(CC(C)C)C1Cc2cccc(O)c2C(=O)O1 (stereo not shown) [IIIa-18-2]	100%	–	–	–	38%
CCCCNC1CC(=O)OC1C(O)C(=O)NC(CC(C)C)C1Cc2cccc(O)c2C(=O)O1 (stereo not shown) [IIIa-18-3]	100%	–	–	–	42%
CC(C)CNC1CC(=O)OC1C(O)C(=O)NC(CC(C)C)C1Cc2cccc(O)c2C(=O)O1 (stereo not shown) [IIIa-18-4]	94%	–	–	–	47%
CC(C)CCNC1CC(=O)OC1C(O)C(=O)NC(CC(C)C)C1Cc2cccc(O)c2C(=O)O1 (stereo not shown) [IIIa-18-5]	100%	–	–	–	47%
CCCCCNC1CC(=O)OC1C(O)C(=O)NC(CC(C)C)C1Cc2cccc(O)c2C(=O)O1 (stereo not shown) [IIIa-18-6]	94%	–	–	–	50%
CCCCCCNC1CC(=O)OC1C(O)C(=O)NC(CC(C)C)C1Cc2cccc(O)c2C(=O)O1 (stereo not shown) [IIIa-18-7]	100%	–	–	–	51%
CCCCCCCNC1CC(=O)OC1C(O)C(=O)NC(CC(C)C)C1Cc2cccc(O)c2C(=O)O1 (stereo not shown) [IIIa-18-8]	94%	–	–	–	50%
CCCCCCCCNC1CC(=O)OC1C(O)C(=O)NC(CC(C)C)C1Cc2cccc(O)c2C(=O)O1 (stereo not shown) [IIIa-18-9]	94%	–	–	–	43%
CCCCCCCCCCCCNC1CC(=O)OC1C(O)C(=O)NC(CC(C)C)C1Cc2cccc(O)c2C(=O)O1 (stereo not shown) [IIIa-18-10]	94%	–	–	–	43%
CCCCCCCCCCCCCCCCCCNC1CC(=O)OC1C(O)C(=O)NC(CC(C)C)C1Cc2cccc(O)c2C(=O)O1 (stereo not shown) [IIIa-18-11]	83%	–	–	–	35%

SMILES	inhibition in vivo at 50 mg/kg (ulcer)	solubility [1]	stability to heat and/or alkali [2]	stability in aqueous solution ([2]; aqueous solution)	inhibition in vivo at 100 mg/kg (edema)
CCNC1CC(=O)OC1C(O)C(=O)NC(CC(C)C)C1Cc2cccc(OCC)c2C(=O)O1 (stereo not shown) [IIIa-22-1]	94%	–	–	–	37%
CCOc1cccc2c1C(=O)OC(C(CC(C)C)NC(=O)C(O)C1OC(=O)CC1NCCC(C)C)C2 (stereo not shown) [IIIa-22-2]	94%	–	–	–	35%
CCCCOc1cccc2c1C(=O)OC(C(CC(C)C)NC(=O)C(O)C1OC(=O)CC1NCC)C2 (stereo not shown) [IIIa-22-3]	94%	–	–	–	38%
CCNC1CC(=O)OC1C(O)C(=O)NC(CC(C)C)C1Cc2cccc(OC)c2C(=O)O1 (stereo not shown) [IIIa-22-5]	94%	–	–	–	37%
CCCCNC1CC(=O)OC1C(O)C(=O)NC(CC(C)C)C1Cc2cccc(OC)c2C(=O)O1 (stereo not shown) [IIIa-22-74]	100%	–	–	–	45%
CCCCNC1CC(=O)OC1C(O)C(=O)NC(CC(C)C)C1Cc2cccc(OCC)c2C(=O)O1 (stereo not shown) [IIIa-22-75]	100%	–	–	–	48%
CNC1CC(=O)OC1C(O)C(=O)NC(CC(C)C)C1Cc2cccc(O)c2C(=O)O1 (stereo not shown) [IIIa-27-1]	100%	–	–	–	38%
CCCCNC(CC(=O)O)C(O)C(OC(=O)CCC)C(=N)NC(CC(C)C)C1Cc2cccc(O)c2C(=O)O1 (stereo not shown) [Vb-11-3]	72%	–	–	–	–
CCNC(CC(=O)O)C(O)C(OC(=O)CC)C(=N)NC(CC(C)C)C1Cc2cccc(OC(=O)C(C)C)c2C(=O)O1 (stereo not shown) [Vb-12-1]	56%	–	–	–	–
CC(=O)Oc1cccc2c1C(=O)OC(C(CC(C)C)NC(=N)C(OC(C)=O)C(O)C(CC(=O)O)NCC1CCCO1)C2 (stereo not shown) [Vb-12-2]	56%	–	–	–	–
CC(=O)Oc1cccc2c1C(=O)OC(C(CC(C)C)NC(=N)C(OC(C)=O)C(O)C(CC(=O)O)NCc1ccc(C)cc1)C2 (stereo not shown) [Vb-12-3]	44%	–	–	–	–
CCNC(CC(=O)O)C(O)C(O)C(=N)NC(CC(C)C)C1Cc2cccc(OC(C)=O)c2C(=O)O1 (stereo not shown) [Vb-13-1]	78%	–	–	–	–
CCNC(CC(=O)O)C(O)C(O)C(=N)NC(CC(C)C)C1Cc2cccc(OC)c2C(=O)O1 (stereo not shown) [Vb-14-1]	89%	–	–	–	–
CNC(CC(=O)O)C(O)C(O)C(=N)NC(CC(C)C)C1Cc2cccc(O)c2C(=O)O1 (stereo not shown) [Vb-19-1]	100%	–	–	–	–
CCOc1cccc2c1C(=O)OC(C(CC(C)C)NC(=N)C(O)C(O)C(CC(=O)O)NC)C2 (stereo not shown) [Vb-23-1]	89%	–	–	–	–
CNC(CC(=O)O)C(O)C(OC)C(=N)NC(CC(C)C)C1Cc2cccc(OC(C)=O)c2C(=O)O1 (stereo not shown) [Vb-27-1]	66%	–	–	–	–
COC(C(=N)NC(CC(C)C)C1Cc2cccc(OC(C)=O)c2C(=O)O1)C(O)C(CC(=O)O)NC(C)C (stereo not shown) [Vb-27-2]	66%	–	–	–	–
